Data reported in ChEMBL document CHEMBL3217532, “New analyses of MIC90 data to aid antibacterial drug discovery” (2011).
≈ marks a conversion by molar mass, not a printed value.

What was measured:
Type in all cases: functional
[1] = tested on: Pseudomonas aeruginosa; test: Antimicrobial activity against Pseudomonas aeruginosa PA-4624
[2] = tested on: Pseudomonas aeruginosa; test: Antimicrobial activity against Pseudomonas aeruginosa PA-4991
[3] = tested on: Pseudomonas aeruginosa; test: Antimicrobial activity against Pseudomonas aeruginosa 1954-00
[4] = tested on: Pseudomonas aeruginosa; test: Antimicrobial activity against Pseudomonas aeruginosa 1619-08
[5] = tested on: Pseudomonas aeruginosa; test: Antimicrobial activity against Pseudomonas aeruginosa PA-4997
[6] = tested on: Pseudomonas aeruginosa; test: Antimicrobial activity against Pseudomonas aeruginosa 1527-08
[7] = tested on: Pseudomonas aeruginosa; test: Antimicrobial activity against Pseudomonas aeruginosa 1569-05
[8] = tested on: Pseudomonas aeruginosa; test: Antimicrobial activity against Pseudomonas aeruginosa PA-4990
[9] = tested on: Pseudomonas aeruginosa; test: Antimicrobial activity against Pseudomonas aeruginosa 1752-00
[10] = tested on: Pseudomonas aeruginosa; test: Antimicrobial activity against Pseudomonas aeruginosa 1515-08
[11] = tested on: Pseudomonas aeruginosa; test: Antimicrobial activity against Pseudomonas aeruginosa 1764-00
[12] = tested on: Pseudomonas aeruginosa; test: Antimicrobial activity against Pseudomonas aeruginosa 1955-00
[13] = tested on: Pseudomonas aeruginosa; test: Antimicrobial activity against Pseudomonas aeruginosa PA-75
[14] = tested on: Pseudomonas aeruginosa; test: Antimicrobial activity against Pseudomonas aeruginosa 1563-00
[15] = tested on: Pseudomonas aeruginosa; test: Antimicrobial activity against Pseudomonas aeruginosa 1951-00
[16] = tested on: Pseudomonas aeruginosa; test: Antimicrobial activity against Pseudomonas aeruginosa 1953-00
[17] = tested on: Pseudomonas aeruginosa; test: Antimicrobial activity against Pseudomonas aeruginosa 1509-08
[18] = tested on: Pseudomonas aeruginosa; test: Antimicrobial activity against Pseudomonas aeruginosa 1512-08
[19] = tested on: Pseudomonas aeruginosa; test: Antimicrobial activity against Pseudomonas aeruginosa 1568-05
[20] = tested on: Pseudomonas aeruginosa; test: Antimicrobial activity against Pseudomonas aeruginosa 1565-05
[21] = tested on: Pseudomonas aeruginosa; test: Antimicrobial activity against Pseudomonas aeruginosa 1510-08
[22] = tested on: Pseudomonas aeruginosa; test: Antimicrobial activity against Pseudomonas aeruginosa 1753-00
[23] = tested on: Pseudomonas aeruginosa; test: Antimicrobial activity against Pseudomonas aeruginosa PA-4995
[24] = tested on: Pseudomonas aeruginosa; test: Antimicrobial activity against Pseudomonas aeruginosa 1513-08
[25] = tested on: Pseudomonas aeruginosa; test: Antimicrobial activity against Pseudomonas aeruginosa 1613-09
[26] = tested on: Pseudomonas aeruginosa; test: Antimicrobial activity against Pseudomonas aeruginosa 1952-00
[27] = tested on: Pseudomonas aeruginosa; test: Antimicrobial activity against Pseudomonas aeruginosa 1612-09
[28] = tested on: Pseudomonas aeruginosa; test: Antimicrobial activity against Pseudomonas aeruginosa 1765-00
[29] = tested on: Pseudomonas aeruginosa; test: Antimicrobial activity against Pseudomonas aeruginosa 1760-00
[30] = tested on: Pseudomonas aeruginosa; test: Antimicrobial activity against Pseudomonas aeruginosa 1957-00
[31] = tested on: Pseudomonas aeruginosa; test: Antimicrobial activity against Pseudomonas aeruginosa 1567-05
[32] = tested on: Pseudomonas aeruginosa; test: Antimicrobial activity against Pseudomonas aeruginosa 1766-00
[33] = tested on: Pseudomonas aeruginosa; test: Antimicrobial activity against Pseudomonas aeruginosa 1514-08
[34] = tested on: Pseudomonas aeruginosa; test: Antimicrobial activity against Pseudomonas aeruginosa 1561-05
[35] = tested on: Pseudomonas aeruginosa; test: Antimicrobial activity against Pseudomonas aeruginosa 1564-05
[36] = tested on: Pseudomonas aeruginosa; test: Antimicrobial activity against Pseudomonas aeruginosa 1761-00
[37] = tested on: Pseudomonas aeruginosa; test: Antimicrobial activity against Pseudomonas aeruginosa PA-4999
[38] = tested on: Pseudomonas aeruginosa; test: Antimicrobial activity against Pseudomonas aeruginosa 1614-09
[39] = tested on: Pseudomonas aeruginosa; test: Antimicrobial activity against Pseudomonas aeruginosa 1956-00
[40] = tested on: Pseudomonas aeruginosa; test: Antimicrobial activity against Pseudomonas aeruginosa 1566-05
[41] = tested on: Pseudomonas aeruginosa; test: Antimicrobial activity against Pseudomonas aeruginosa 1521-08
[42] = tested on: Pseudomonas aeruginosa; test: Antimicrobial activity against Pseudomonas aeruginosa 1615-09
[43] = tested on: Pseudomonas aeruginosa; test: Antimicrobial activity against Pseudomonas aeruginosa 1767-00
[44] = tested on: Pseudomonas aeruginosa; test: Antimicrobial activity against Pseudomonas aeruginosa 1611-09
[45] = tested on: Pseudomonas aeruginosa; test: Antimicrobial activity against Pseudomonas aeruginosa 1570-05
[46] = tested on: Pseudomonas aeruginosa; test: Antimicrobial activity against Pseudomonas aeruginosa 1562-05
[47] = tested on: Pseudomonas aeruginosa; test: Antimicrobial activity against Pseudomonas aeruginosa 1523-08
[48] = tested on: Pseudomonas aeruginosa; test: Antimicrobial activity against Pseudomonas aeruginosa PA-4993
[49] = tested on: Pseudomonas aeruginosa; test: Antimicrobial activity against Pseudomonas aeruginosa 1768-00
[50] = tested on: Pseudomonas aeruginosa; test: Antimicrobial activity against Pseudomonas aeruginosa PA-1757
[51] = tested on: Pseudomonas aeruginosa; test: Antimicrobial activity against Pseudomonas aeruginosa 1526-08

MIC90 [1]: 0.25 µg/mL (≈ 0.351 µM)
MIC90 [2]: 0.25 µg/mL (≈ 0.351 µM)
MIC90 [3]: 0.06 µg/mL (≈ 0.0843 µM)
MIC90 [4]: 0.06 µg/mL (≈ 0.0843 µM)
MIC90 [5]: 0.25 µg/mL (≈ 0.351 µM)
MIC90 [6]: 0.25 µg/mL (≈ 0.351 µM)
MIC90 [7]: 0.25 µg/mL (≈ 0.351 µM)
MIC90 [8]: 0.25 µg/mL (≈ 0.351 µM)
MIC90 [9]: 0.25 µg/mL (≈ 0.351 µM)
MIC90 [10]: 0.25 µg/mL (≈ 0.351 µM)
MIC90 [11]: 0.25 µg/mL (≈ 0.351 µM)
MIC90 [12]: 0.125 µg/mL (≈ 0.176 µM)
MIC90 [13]: 0.25 µg/mL (≈ 0.351 µM)
MIC90 [14]: 0.125 µg/mL (≈ 0.176 µM)
MIC90 [15]: 0.25 µg/mL (≈ 0.351 µM)
MIC90 [16]: 0.5 µg/mL (≈ 0.703 µM)
MIC90 [17]: 1 µg/mL (≈ 1.41 µM)
MIC90 [18]: 0.25 µg/mL (≈ 0.351 µM)
MIC90 [19]: 0.25 µg/mL (≈ 0.351 µM)
MIC90 [20]: 0.125 µg/mL (≈ 0.176 µM)
MIC90 [21]: 2 µg/mL (≈ 2.81 µM)
MIC90 [22]: 0.25 µg/mL (≈ 0.351 µM)
MIC90 [23]: 0.06 µg/mL (≈ 0.0843 µM)
MIC90 [24]: 0.5 µg/mL (≈ 0.703 µM)
MIC90 [25]: 0.5 µg/mL (≈ 0.703 µM)
MIC90 [26]: 0.25 µg/mL (≈ 0.351 µM)
MIC90 [27]: 0.25 µg/mL (≈ 0.351 µM)
MIC90 [28]: 1 µg/mL (≈ 1.41 µM)
MIC90 [29]: 1 µg/mL (≈ 1.41 µM)
MIC90 [30]: 0.125 µg/mL (≈ 0.176 µM)
MIC90 [31]: 0.125 µg/mL (≈ 0.176 µM)
MIC90 [32]: 16 µg/mL (≈ 22.5 µM)
MIC90 [33]: 0.5 µg/mL (≈ 0.703 µM)
MIC90 [34]: 0.5 µg/mL (≈ 0.703 µM)
MIC90 [35]: 0.125 µg/mL (≈ 0.176 µM)
MIC90 [36]: 0.5 µg/mL (≈ 0.703 µM)
MIC90 [37]: 0.25 µg/mL (≈ 0.351 µM)
MIC90 [38]: 0.25 µg/mL (≈ 0.351 µM)
MIC90 [39]: 0.06 µg/mL (≈ 0.0843 µM)
MIC90 [40]: 0.25 µg/mL (≈ 0.351 µM)
MIC90 [41]: 0.5 µg/mL (≈ 0.703 µM)
MIC90 [42]: 0.25 µg/mL (≈ 0.351 µM)
MIC90 [43]: 0.25 µg/mL (≈ 0.351 µM)
MIC90 [44]: 0.06 µg/mL (≈ 0.0843 µM)
MIC90 [45]: 0.25 µg/mL (≈ 0.351 µM)
MIC90 [46]: 0.125 µg/mL (≈ 0.176 µM)
MIC90 [47]: 0.25 µg/mL (≈ 0.351 µM)
MIC90 [48]: 0.06 µg/mL (≈ 0.0843 µM)
MIC90 [49]: 0.06 µg/mL (≈ 0.0843 µM)
MIC90 [50]: 4 µg/mL (≈ 5.62 µM)
MIC90 [51]: 0.5 µg/mL (≈ 0.703 µM)
Structure (SMILES): C[C@H]1[C@H](NC(=O)/C(=N\OC(C)(C)C(=O)O)c2csc(N)n2)C(=O)N1C(=O)NS(=O)(=O)n1nc(-c2cc(=O)c(O)c[nH]2)n(CC(N)=O)c1=O
